Measured values from patent US20130041330A1, “MICRO-NEEDLE DEVICE AND PREPARATION METHOD” (HISAMITSU PHARMACEUTICAL CO., INC., priority 2010, published 2013).

Legend:
[1] = Viscosity measurement of octreotide acetate physiologically active composition (micron sample viscometer); assay type: physicochemical; settings: 25° C.
Description: The octreotide acetate concentration and the propylene glycol or glycerin concentration were adjusted as shown in Table 3 and Table 4 to prepare a physiologically active composition. The viscosity of the obtained physiologically active composition was measured ten times with a micron sample viscometer (RHEOSENSE INC., Micron Sample-Viscometer/Rheometer-on-a-chip VROCTM), and the mean value was calculated to be shown in Table 3 and Table 4.

[2] = Viscosity imparting test in nonaqueous formulation (polymer compound solubility and viscosity); assay type: physicochemical; settings: 25° C.
Description: With respect to each solvent of propylene glycol and glycerin, polymer compounds shown in Table 5 and Table 6 were added to prepare mixed solutions. Each concentration of the polymer compounds was designed in consideration of the molecular weight and the like. […] Separately, the viscosity of the mixed solution or the solution after the stirring was determined with a micron sample viscometer at 25° C.

Viscosity Avg. ([1]; octreotide acetate 20 / glycerin 80 % by weight) | Viscosity Avg. ([1]; octreotide acetate 20 / propylene glycol 80 % by weight) [cps] | Viscosity Avg. ([1]; octreotide acetate 30 / glycerin 70 % by weight) | Viscosity Avg. ([1]; octreotide acetate 35 / glycerin 65 % by weight) | Viscosity Avg. ([1]; octreotide acetate 40 / glycerin 60 % by weight) | Viscosity Avg. ([1]; octreotide acetate 40 / propylene glycol 60 % by weight) | Viscosity Avg. ([1]; octreotide acetate 50 / glycerin 50 % by weight) | Viscosity Avg. ([1]; octreotide acetate 50 / propylene glycol 50 % by weight) | Viscosity Avg. ([1]; octreotide acetate 60 / glycerin 40 % by weight) | Viscosity Avg. ([1]; octreotide acetate 60 / propylene glycol 40 % by weight) | Viscosity Avg. ([1]; octreotide acetate 70 / propylene glycol 30 % by weight) | Viscosity Avg. ([1]; octreotide acetate 80 / propylene glycol 20 % by weight) | Compound | Viscosity ([2]; glycerin, additive concentration 0.5 % by mass) | Viscosity ([2]; propylene glycol, additive concentration 1.0 % by mass) [mPa · s]
2,900 cps | 200 | 9,000 cps | 12,000 cps | 15,000 cps | 1,600 cps | 21,000 cps | 5,400 cps | 27,000 cps | 15,000 cps | 45,000 cps | 133,000 cps | C[C@@H](O)[C@@H]1NC(=O)[C@H](CCCCN)NC(=O)[C@@H](Cc2c[nH]c3ccccc23)NC(=O)[C@H](Cc2ccccc2)NC(=O)[C@@H](NC(=O)[C@H](N)Cc2ccccc2)CSSC[C@@H](C(=O)N[C@H](CO)[C@@H](C)O)NC1=O [Octreotide acetate] | – | –
– | – | – | – | – | – | – | – | – | – | – | – | Protamine | 1,442 mPa · s | 53
